Data as given in US4288609A, “Quaternary ammonium derivatives of adamantane with antimicrobic activity” (priority 1976, dated 1981).

Assays:
[1] = test system: Staphylococcus Aureus Tour; assay: Speed of sterilising action, Staphylococcus Aureus (Table 3); type: cell-based
Description: (§1) The strains, inoculants, culture broths and experimental methods are as already seen for calculating the M.I.C. in vitro. The antimicrobic substances were tested at concentrations of 0.1, 0.25, 0.5 and 1 g/l, the contact times taken into consideration are 0, 1, 2.5, 5, 7.5, 10, 15, 30 and 60 minutes.
(§2) The samples which at the 7th day of incubation still had no growth of micro-organisms which could be observed macroscopically and/or microscopically were considered sterile.
(§3) The results are recorded in Table 3 in terms of sterilization time expressed in minutes.

[2] = test system: Escherichia Coli SKF 12140; assay: Speed of sterilising action, Escherichia Coli (Table 3); type: cell-based
Description: as §1, §2, §3

[3] = test system: Trichomonas Vaginalis ISM 66/22; assay: Speed of sterilising action, Trichomonas Vaginalis (Table 3); type: cell-based
Description: as §1, §2, §3

[4] = test system: Pseudomonas Aeruginosa; assay: Antibacterial activity in vivo with topical treatment (Table 5); parameters: species or system female CF1 albino mice; details: for animals alive on the 15th day / animals dead on the 15th day: 10 animals; for % survivors: topical, 15th day; for efficacy in vivo (in words): other concentrations considered
Description: After their backs have been shaved, female CF1 albino mice weighing 18-22 g are scorched (under ether anaesthetic) for 15 seconds with a pad of brass previously immersed in boiling water (7-8% of the body surface). After 90 minutes there is applied to the scorched area 0.1 ml of a suspension of Pseudomonas Aeruginosa bacteria having 15% transmittance at 650 nm. The bacterial strain in question produces a high incidence of mortality, induced by septicemic diffusion from the point of infection. After 90 minutes, with the aid of a glass rod suitably flattened at one end, the preparation containing a known concentration of the compound under examination is applied locally. The treatment is continued for a total of six days (once per day). On the fifteenth day the percentage of survivors to the tested doses in recorded.
The carrier used for applying the compounds under examination is an aqueous 0.75% solution of carboxymethyl-cellulose. The concentrations of the compounds tested are 2, 1, 0.5 and 0.25% by weight.

[5] = test system: Candida albicans; assay: Activity upon vaginal candidiasis in mice (Table 7); type: in vivo, female Swiss mice (Charles River CD1); details: for proliferation index (individual): eighth day
Description: The treatment groups consist each of 8 female Swiss mice (Charles River CD1) of average weight 20 g. The animals are infected with 0.025 ml of a 24 hour culture of Candida albicans, equal to 10^6 cellules.
0.025 ml of a suspension in lanoline of the compound to be tested, at the desired concentration, are applied locally twice a day for a week, the first treatment being started five hours after infection.
The control group is treated with the lanoline alone in the same way. On the eighth day vaginal washings are carried out with 0.025 ml of sterile physiological solution, and the liquid is sown in Petri dishes containing Bacto Biggy Agon Difco as a selective growing medium for the Candida.
After 48 hours of incubation of the dishes at 30° C. a count is taken of the colonies which have grown. Assessment of the activity is quantized using the indices listed here below:
The results are expressed as percentages of the average index of seriousness of the infection A.D.I. (Average Degree of Infection) in the animals treated with respect to the animals in the control group.
The substances under examination were tested at concentrations of 5 and 3% by weight.

| Structure (SMILES) | sterilization time ([2]; 0.1 g/l) [min] | sterilization time ([2]; 0.25 g/l) [min] | sterilization time ([2]; 0.5 g/l) [min] | sterilization time ([2]; 1 g/l) [min] | animals alive on the 15th day ([4]; 0.25% by weight) | animals dead on the 15th day ([4]; 0.25% by weight) | % survivors ([4]; 0.25% by weight) [%] | animals alive on the 15th day ([4]; 0.5% by weight) | animals dead on the 15th day ([4]; 0.5% by weight) | animals alive on the 15th day ([4]; 1% by weight) | animals dead on the 15th day ([4]; 1% by weight) | % survivors ([4]; 1% by weight) [%] | animals alive on the 15th day ([4]; 2% by weight) | animals dead on the 15th day ([4]; 2% by weight) | % survivors ([4]; 2% by weight) [%] | efficacy in vivo (in words) [4] | % of healing (100-A.D.I. %) ([5]; 3% by weight) [%] | A.D.I. (compared with controls) ([5]; 3% by weight) [%] | average proliferation index (A.D.I) ([5]; 3% by weight) | % of healing (100-A.D.I. %) ([5]; 5% by weight) [%] | also measured |
| --- | --- | --- | --- | --- | --- | --- | --- | --- | --- | --- | --- | --- | --- | --- | --- | --- | --- | --- | --- | --- | --- |
| CCCCCCCCCCCC[N+](C)(C)CCOC(=O)C12CC3CC(CC(C3)C1)C2 [Example 4] | 60 | 60 | 30 | 10 | 4 | 6 | 40 | 6 | 4 | 6 | 4 | 60 | 7 | 3 | 70 | secure efficacy | 57.98 | 42.02 | 1.00 | 84.03 | sterilization time ([1]; 0.1 g/l): 7.5 min; sterilization time ([1]; 0.25 g/l): 5 min; sterilization time ([1]; 0.5 g/l): 1 min; sterilization time ([1]; 1 g/l): 1 min; sterilization time ([3]; 0.1 g/l): 2.5 min; sterilization time ([3]; 0.25 g/l): 1 min; sterilization time ([3]; 0.5 g/l): 1 min; sterilization time ([3]; 1 g/l): 1 min; % survivors ([4]; 0.5% by weight): 60%; no. of animals surviving ([5]; 3% by weight, 8 animals): 8; proliferation index (individual) ([5]; 3% by weight): 2-0-1-1-1-1--0-2; A.D.I. (compared with controls) ([5]; 5% by weight): 15.97%; average proliferation index (A.D.I) ([5]; 5% by weight): 0.38; no. of animals surviving ([5]; 5% by weight, 8 animals): 8; tolerance by vaginal mucous membrane ([5]; mice, local): perfectly tolerated by very delicate tissues; topical in vivo activity against Candida albicans (in words) ([5]; mouse, in vivo): excellent topical activity "in vivo" even against Candida albicans |
| CCCCCCCCCC[N+](C)(C)CCOC(=O)C12CC3CC(CC(C3)C1)C2 (single isomer, unassigned) [Example 1, n-Decyl-dimethyl-(1-adamantane-carboxy)-ethyl-ammonium bromide] | 60 | 60 | 15 | 5 | 5 | 5 | 50 | 6 | 4 | 8 | 2 | 80 | 8 | 2 | 80 | secure efficacy | 63.03 | 36.97 | 0.88 | 84.03 | sterilization time ([1]; 0.1 g/l): 7.5 min; sterilization time ([1]; 0.25 g/l): 2.5 min; sterilization time ([1]; 0.5 g/l): 1 min; sterilization time ([1]; 1 g/l): 1 min; sterilization time ([3]; 0.1 g/l): 2.5 min; sterilization time ([3]; 0.25 g/l): 1 min; sterilization time ([3]; 0.5 g/l): 1 min; sterilization time ([3]; 1 g/l): 1 min; A.D.I. (compared with controls) ([5]; 5% by weight): 15.97%; average proliferation index (A.D.I) ([5]; 5% by weight): 0.38; no. of animals surviving ([5]; mouse, in vivo): 8; tolerance by vaginal mucous membrane ([5]; mouse, in vivo): perfectly tolerated by very delicate tissues; topical in vivo activity against Candida albicans (in words) ([5]; mouse, in vivo): excellent topical activity "in vivo" even against Candida albicans |
| CCCCCCCCCCCC[N+](C)(C)CCNC(=O)C12CC3CC(CC(C3)C1)C2 [Example 8] | 60 | 60 | 10 | 7.5 | 3 | 7 | 30 | 6 | 5 | 6 | 4 | 60 | 7 | 3 | 70 | secure efficacy | 63.03 | 36.97 | 0.88 | 78.99 | % survivors ([4]; 0.5% by weight): 60%; proliferation index (individual) ([5]; 3% by weight): 0-1-1-3-0-0-0-2; A.D.I. (compared with controls) ([5]; 5% by weight): 21.01%; average proliferation index (A.D.I) ([5]; 5% by weight): 0.50; no. of animals surviving ([5]; 5% by weight, 8 animals): 2; proliferation index (individual) ([5]; 5% by weight): 0-0-0-2-1-0-0-1; tolerance by vaginal mucous membrane ([5]; mice, local): perfectly tolerated by very delicate tissues; topical in vivo activity against Candida albicans (in words) ([5]; mouse, in vivo): excellent topical activity "in vivo" even against Candida albicans |
